One may read the pIC50 as the negative decadic logarithm of the IC50, by convention in mol/L. A higher pIC50 goes with a small IC50. Broadly, the pEC50 is the EC50 on a negative log10 scale, so that one unit is a factor of ten.

pEC50, pIC50: −log10 of the molar value. Like-named read-outs stand apart in the source and are kept apart here. Positions of bridges follow the written chain, without caps; N, C: chain ends. Residues, ends and D or L forms follow the SMILES beside them. No end group written: not given here. branched PEG 40 kDa = branched polyethylene glycol of 40 kDa Some results are limits rather than exact numbers.

The text below walks through data of patent publication US20130203659A1 (priority 2006, published 2013).

In assay [1] the target is T1, human GLP-1 receptor (Homo sapiens, UniProt P43220).
T1 construct: expressed in transfected cells; host or cells: CHOK1 cells with a cAMP-regulated luciferase reporter construct
T1 sequence (P43220 24-463): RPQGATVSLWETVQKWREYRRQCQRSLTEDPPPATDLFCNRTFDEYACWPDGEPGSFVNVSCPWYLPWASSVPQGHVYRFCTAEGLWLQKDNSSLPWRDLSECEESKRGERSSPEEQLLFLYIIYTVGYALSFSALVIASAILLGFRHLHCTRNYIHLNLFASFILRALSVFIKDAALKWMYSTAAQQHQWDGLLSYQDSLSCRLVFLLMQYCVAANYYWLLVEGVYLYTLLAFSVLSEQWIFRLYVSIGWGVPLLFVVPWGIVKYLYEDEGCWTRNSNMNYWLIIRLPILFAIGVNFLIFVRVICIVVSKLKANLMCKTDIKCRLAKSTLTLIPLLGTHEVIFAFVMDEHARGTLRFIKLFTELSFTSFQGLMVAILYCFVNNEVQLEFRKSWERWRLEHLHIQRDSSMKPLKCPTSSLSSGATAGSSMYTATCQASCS
Description: In vitro GLP-1 receptor binding (125I-GLP-1 ligand binding assay), human receptor. On the procedure: Cells were sedimented at 1500 rpm for 10 minutes. The resulting pellets were homogenized in 15 mls of ice cold sucrose buffer (25 mM Tris-HCl, 0.32 M Sucrose, 0.25 g/L sodium azide, pH 7.4) with a motorized, glass fitted, Teflon homogenizer. The homogenate was centrifuged at 48,000×g at 4° C. for 10 minutes, resuspended in 25 ml assay buffer (50 mM Tris-HCl, 5 mM MgCl2, 10 mg/ml protease-free BSA, 0.1 mg/ml STI, and 0.1 mg/ml Pefabloc, pH 7.4) with a Tissue-Tearor (Biospec Products), then centrifuged again at 48,000×g for 10 minutes. The pellets were homogenized for a third time in 15 ml assay buffer using the Tissue-Tearor and again centrifuged at 48,000×g for 10 minutes. The resulting pellet was resuspended in assay buffer at a wet weight concentration of 4 mg/ml.
Binding assays were performed in 96-well U-bottom plates. […] Bound radioactivity was determined using a TopCount microplate scintillation and luminescence counter (Packard Instrument Company, PerkinElmer, Shelton, Conn.). Nonlinear regression analyses of resulting concentration curves were performed using GraphPad Prism (GraphPad Software, Inc., San Diego, Calif.).

For assay [2], the target named is T1, human GLP-1 receptor. Description: GLP-1R reporter assay (cAMP-regulated luciferase, CHOK1 cells), human receptor. The format is cell-based. On the procedure: (§1) A. GLP-1R Reporter Assay:
(§2) Increased cAMP levels were measured through enhanced expression of a luciferase reporter gene. […] The evening prior to assay, the cells were washed, the medium replaced with serum-free medium containing 0.5% protease-free bovine serum albumin (BSA), and then cultured overnight. […] Cell lysates were assayed for luciferase activity using the Luciferase Assay System (Promega Corporation, Madison, Wis.). Luciferase activity was measured using a Luminoskan Ascent (Thermo Electron Corporation, Marietta, Ohio). Nonlinear regression analyses of resultant compound concentration curves were performed using GraphPad Prism (GraphPad Software, Inc., San Diego, Calif.).
A general note: Reporter assays use an easily measured gene product as a stand-in for the process of interest.

The next assay has as its target T2, mouse GLP-1 receptor (Mus musculus, UniProt O35659).
T2 construct: expressed in transfected cells; host or cells: CHOK1 cells with a cAMP-regulated luciferase reporter construct
T2 sequence (O35659 22-463): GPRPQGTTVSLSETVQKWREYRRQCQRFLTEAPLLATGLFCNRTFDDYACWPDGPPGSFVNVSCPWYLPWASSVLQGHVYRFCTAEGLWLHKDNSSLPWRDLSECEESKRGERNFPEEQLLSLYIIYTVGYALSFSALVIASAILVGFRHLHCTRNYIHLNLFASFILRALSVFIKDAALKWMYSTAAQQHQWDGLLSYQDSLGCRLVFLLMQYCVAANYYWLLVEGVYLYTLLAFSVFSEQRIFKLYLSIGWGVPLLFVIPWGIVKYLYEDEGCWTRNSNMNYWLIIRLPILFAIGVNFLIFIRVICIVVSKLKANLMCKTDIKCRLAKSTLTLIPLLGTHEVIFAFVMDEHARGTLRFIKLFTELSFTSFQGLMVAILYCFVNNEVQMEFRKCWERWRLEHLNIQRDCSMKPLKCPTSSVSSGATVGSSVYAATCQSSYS
Description: GLP-1R reporter assay (cAMP-regulated luciferase, CHOK1 cells), mouse receptor. The format is cell-based. As to conditions: 6 hours exposure. On the procedure: as §1, §2

[3] abbreviates: membranes of CHOK1 cells expressing human GLP-1 receptor, 0.2 nM 125I-GLP-1.
The mark [4] stands for this setting: luciferase reporter, 6 hours exposure, read-out: EC50 human.

With “cgGLP-7: SEQ ID NO: 6 + 30k PEG (HGEGTFTSDVSSYLEGC(PEG 30 kDa)AAKEFIAWLVKGRG)”, the pIC50 with human GLP-1 receptor [1] (setting [3]) is under 6.00. Turning to “cgGLP-13: SEQ ID NO: 8 + 20k PEG monomer (HGEGTFTSDVSSYLEGC(PEG 20 kDa)AAKEFIAWLKNGGPSSGAPPPS)”, the pEC50 in the assay with human GLP-1 receptor [2] (setting [4]) is 9.00. Further, the pIC50 in the assay with human GLP-1 receptor [1] (setting [3]) is under 6.00. For `CC[C@H](C)[C@H](NC(=O)[C@H](Cc1ccccc1)NC(=O)[C@H](CCC(=O)O)NC(=O)[C@H](CCCCN)NC(=O)[C@H](C)NC(=O)[C@H](C)NC(=O)[C@H](CCC(N)=O)NC(=O)CNC(=O)[C@H](CCC(=O)O)NC(=O)[C@H](CC(C)C)NC(=O)[C@H](Cc1ccc(O)cc1)NC(=O)[C@H](CO)NC(=O)[C@H](CO)NC(=O)[C@@H](NC(=O)[C@H](CC(=O)O)NC(=O)[C@H](CO)NC(=O)[C@@H](NC(=O)[C@H](Cc1ccccc1)NC(=O)[C@@H](NC(=O)CNC(=O)[C@H](CCC(=O)O)NC(=O)[C@H](C)NC(=O)[C@H](Cc1c[nH]cn1)NC(=O)[C@H](CCC(=O)O)NC(=O)[C@@H](N)CCSC)[C@@H](C)O)[C@@H](C)O)C(C)C)C(=O)N[C@@H](C)C(=O)N[C@@H](Cc1c[nH]c2ccccc12)C(=O)N[C@@H](CC(C)C)C(=O)N[C@H](C(=O)N[C@@H](CCCCN)C(=O)NCC(=O)N[C@@H](CCCNC(=N)N)C(=O)O)C(C)C` [ME-GLP1, ME HAEGTFTSDVSSYLEGQAAKEFIAWLVKGR], the pEC50 was 8.40 at mouse GLP-1 receptor and 9.00 at human GLP-1 receptor [2] (setting [4]). For the compound `CC[C@H](C)[C@H](NC(=O)[C@H](Cc1ccccc1)NC(=O)[C@H](CCC(=O)O)NC(=O)[C@H](CCCCN)NC(=O)[C@H](C)NC(=O)[C@H](C)NC(=O)[C@H](CCC(N)=O)NC(=O)CNC(=O)[C@H](CCC(=O)O)NC(=O)[C@H](CC(C)C)NC(=O)[C@H](Cc1ccc(O)cc1)NC(=O)[C@H](CO)NC(=O)[C@H](CO)NC(=O)[C@@H](NC(=O)[C@H](CC(=O)O)NC(=O)[C@H](CO)NC(=O)[C@@H](NC(=O)[C@H](Cc1ccccc1)NC(=O)[C@@H](NC(=O)CNC(=O)[C@H](CCC(=O)O)NC(=O)[C@H](C)NC(=O)[C@H](Cc1c[nH]cn1)NC(=O)[C@H](Cc1c[nH]c2ccccc12)NC(=O)[C@@H](N)CCSC)[C@@H](C)O)[C@@H](C)O)C(C)C)C(=O)N[C@@H](C)C(=O)N[C@@H](Cc1c[nH]c2ccccc12)C(=O)N[C@@H](CC(C)C)C(=O)N[C@H](C(=O)N[C@@H](CCCCN)C(=O)NCC(=O)N[C@@H](CCCNC(=N)N)C(=O)O)C(C)C` [MW-GLP1, MW HAEGTFTSDVSSYLEGQAAKEFIAWLVKGR], the results for the pEC50 at mouse GLP-1 receptor and at human GLP-1 receptor [2] (setting [4]) were 8.30 and 9.10, respectively. Regarding `CC[C@H](C)[C@H](NC(=O)[C@H](Cc1ccccc1)NC(=O)[C@H](CCC(=O)O)NC(=O)[C@H](CCCCN)NC(=O)[C@H](C)NC(=O)[C@H](C)NC(=O)[C@H](CCC(N)=O)NC(=O)CNC(=O)[C@H](CCC(=O)O)NC(=O)[C@H](CC(C)C)NC(=O)[C@H](Cc1ccc(O)cc1)NC(=O)[C@H](CO)NC(=O)[C@H](CO)NC(=O)[C@@H](NC(=O)[C@H](CC(=O)O)NC(=O)[C@H](CO)NC(=O)[C@@H](NC(=O)[C@H](Cc1ccccc1)NC(=O)[C@@H](NC(=O)CNC(=O)[C@H](CCC(=O)O)NC(=O)[C@H](C)NC(=O)[C@H](Cc1c[nH]cn1)NC(=O)[C@H](CCCCN)NC(=O)[C@@H](N)CCSC)[C@@H](C)O)[C@@H](C)O)C(C)C)C(=O)N[C@@H](C)C(=O)N[C@@H](Cc1c[nH]c2ccccc12)C(=O)N[C@@H](CC(C)C)C(=O)N[C@H](C(=O)N[C@@H](CCCCN)C(=O)NCC(=O)N[C@@H](CCCNC(=N)N)C(=O)O)C(C)C` [MK-GLP1, MK HAEGTFTSDVSSYLEGQAAKEFIAWLVKGR], the pEC50 at human GLP-1 receptor [2] (setting [4]) was 8.40.

On to “cgGLP-1: SEQ ID NO: 6 + 20K PEG (HGEGTFTSDVSSYLEGC(PEG 20 kDa)AAKEFIAWLVKGRG)”, for which, in the assay with human GLP-1 receptor [2] (setting [4]), the pEC50 is 7.92. In the assay with human GLP-1 receptor [1] (setting [3]), this compound showed a pIC50 of under 6.00. Regarding `CC[C@H](C)[C@H](NC(=O)[C@H](Cc1ccccc1)NC(=O)[C@H](CCC(=O)O)NC(=O)[C@H](CCCCN)NC(=O)[C@H](C)NC(=O)[C@H](C)NC(=O)[C@H](CCC(N)=O)NC(=O)CNC(=O)[C@H](CCC(=O)O)NC(=O)[C@H](CC(C)C)NC(=O)[C@H](Cc1ccc(O)cc1)NC(=O)[C@H](CO)NC(=O)[C@H](CO)NC(=O)[C@@H](NC(=O)[C@H](CC(=O)O)NC(=O)[C@H](CO)NC(=O)[C@@H](NC(=O)[C@H](Cc1ccccc1)NC(=O)[C@@H](NC(=O)CNC(=O)[C@H](CCC(=O)O)NC(=O)[C@H](C)NC(=O)[C@H](Cc1c[nH]cn1)NC(=O)[C@H](Cc1c[nH]cn1)NC(=O)[C@@H](N)CCSC)[C@@H](C)O)[C@@H](C)O)C(C)C)C(=O)N[C@@H](C)C(=O)N[C@@H](Cc1c[nH]c2ccccc12)C(=O)N[C@@H](CC(C)C)C(=O)N[C@H](C(=O)N[C@@H](CCCCN)C(=O)NCC(=O)N[C@@H](CCCNC(=N)N)C(=O)O)C(C)C` [MH-GLP1, MH HAEGTFTSDVSSYLEGQAAKEFIAWLVKGR], the pIC50 at human GLP-1 receptor [1] was 6.46. For the compound `CC[C@H](C)[C@H](NC(=O)[C@H](Cc1ccccc1)NC(=O)[C@H](CCC(=O)O)NC(=O)[C@H](CCCCN)NC(=O)[C@H](C)NC(=O)[C@H](C)NC(=O)[C@H](CCC(N)=O)NC(=O)CNC(=O)[C@H](CCC(=O)O)NC(=O)[C@H](CC(C)C)NC(=O)[C@H](Cc1ccc(O)cc1)NC(=O)[C@H](CO)NC(=O)[C@H](CO)NC(=O)[C@@H](NC(=O)[C@H](CC(=O)O)NC(=O)[C@H](CO)NC(=O)[C@@H](NC(=O)[C@H](Cc1ccccc1)NC(=O)[C@@H](NC(=O)CNC(=O)[C@H](CCC(=O)O)NC(=O)[C@H](C)NC(=O)[C@H](Cc1c[nH]cn1)NC(=O)[C@H](CCC(N)=O)NC(=O)[C@@H](N)CCSC)[C@@H](C)O)[C@@H](C)O)C(C)C)C(=O)N[C@@H](C)C(=O)N[C@@H](Cc1c[nH]c2ccccc12)C(=O)N[C@@H](CC(C)C)C(=O)N[C@H](C(=O)N[C@@H](CCCCN)C(=O)NCC(=O)N[C@@H](CCCNC(=N)N)C(=O)O)C(C)C` [MQ-GLP1, MQ HAEGTFTSDVSSYLEGQAAKEFIAWLVKGR], the pEC50 on mouse GLP-1 receptor is 8.52; on human GLP-1 receptor [2] (setting [4]), 9.30. With “cgGLP-2: SEQ ID NO: 6 + 40k branched PEG (HGEGTFTSDVSSYLEGC(branched PEG 40 kDa)AAKEFIAWLVKGRG)”, the pEC50 with human GLP-1 receptor [2] (setting [4]) was 9.15. The compound further showed a pIC50 with human GLP-1 receptor [1] (setting [3]) of under 6.00. Turning to `CC[C@H](C)[C@H](NC(=O)[C@H](Cc1ccccc1)NC(=O)[C@H](CCC(=O)O)NC(=O)[C@@H]1CCC(=O)NCCCC[C@H](NC(=O)[C@H](CCC(=O)O)NC(=O)[C@H](CC(C)C)NC(=O)[C@H](Cc2ccc(O)cc2)NC(=O)[C@H](CO)NC(=O)[C@H](CO)NC(=O)[C@@H](NC(=O)[C@H](CC(=O)O)NC(=O)[C@H](CO)NC(=O)[C@@H](NC(=O)[C@H](Cc2ccccc2)NC(=O)[C@@H](NC(=O)CNC(=O)[C@H](CCC(=O)O)NC(=O)CNC(=O)[C@@H](N)Cc2c[nH]cn2)[C@@H](C)O)[C@@H](C)O)C(C)C)C(=O)N[C@@H](CCC(N)=O)C(=O)N[C@@H](C)C(=O)N[C@@H](C)C(=O)N1)C(=O)N[C@@H](C)C(=O)N[C@@H](Cc1c[nH]c2ccccc12)C(=O)N[C@@H](CC(C)C)C(=O)N[C@H](C(=O)N[C@@H](CCCCN)C(=O)NCC(=O)N[C@@H](CCCNC(=N)N)C(=O)NCC(N)=O)C(C)C` [GLP1(7-37) cyclo[Lys16-Glu20], HGEGTFTSDVSSYLEKQAAEEFIAWLVKGRG AMIDE] (H-HGEGTFTSDVSSYLEKQAAEEFIAWLVKGRG-NH2; lactam 16-20), the pEC50 on human GLP-1 receptor [2] is 10.80.
